Reference: patent US11524938B2, “Aromatic sulfonamide derivatives” (Bayer Pharma Aktiengesellschaft, priority 2016, dated 2022)

Target: T1, human P2X4 (Homo sapiens, UniProt Q99571)
T1 sequence (Q99571 1-388): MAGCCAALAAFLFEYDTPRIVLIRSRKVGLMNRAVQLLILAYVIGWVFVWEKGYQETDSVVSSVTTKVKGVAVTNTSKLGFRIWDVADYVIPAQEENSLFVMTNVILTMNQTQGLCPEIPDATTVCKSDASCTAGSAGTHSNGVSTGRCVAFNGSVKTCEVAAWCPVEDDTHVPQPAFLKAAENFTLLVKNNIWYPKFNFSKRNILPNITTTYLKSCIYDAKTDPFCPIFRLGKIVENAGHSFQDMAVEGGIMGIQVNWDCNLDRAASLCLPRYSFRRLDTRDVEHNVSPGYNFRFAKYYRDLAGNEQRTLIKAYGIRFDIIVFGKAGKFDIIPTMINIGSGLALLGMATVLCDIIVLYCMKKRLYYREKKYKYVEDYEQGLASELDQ
Assay: Human P2X4 HEK Cell FLIPR Assay
Assay type: cell-based
Settings: agonist Bz-ATP at EC80; for Emax: HEK293, HEK293 cells, percentage of maximal inhibition, read-out: Human P2X4 HEK Cells (FLIPR Assay) avg Efficacy [%]; for IC50: HEK293 cells, individual values listed where some fall outside detection range
Summary of the method: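 Calcium flux read by FLIPR for 120 sec after Bz-ATP challenge at EC80 (established each assay day), following 30 min room-temperature compound preincubation in dye-loaded stable human P2X4 HEK293 cells. Peak RFU over basal normalized to agonist control; IC50, maximal inhibition and Hill coefficient from triplicate means.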

| Compound | Emax [%] | IC50 [nM] |
| --- | --- | --- |
| NS(=O)(=O)c1cc(NC(=O)Cc2c(Cl)cccc2Cl)ccc1-n1cc(Cl)cn1 [Example 80, N-[4-(4-Chloro-1H-pyrazol-1-yl)-3-sulfamoylphenyl]-2-(2,6-dichlorophenyl)acetamide] | 96 | 79 |
| NS(=O)(=O)c1cc(NC(=O)Cc2ccc(F)c(F)c2)ccc1-n1cc(Cl)cn1 [Example 81, N-[4-(4-Chloro-1H-pyrazol-1-yl)-3-sulfamoylphenyl]-2-(3,4-difluorophenyl)acetamide] | 40 | > 25000 |
| NS(=O)(=O)c1cc(NC(=O)Cc2cccc(Cl)c2)ccc1-n1cc(Cl)cn1 [Example 82, 2-(3-Chlorophenyl)-N-[4-(4-chloro-1H-pyrazol-1-yl)-3-sulfamoylphenyl]acetamide] | 36 | > 25000 |
| NS(=O)(=O)c1cc(NC(=O)Cc2cc(F)cc(F)c2)ccc1-n1cc(Cl)cn1 [Example 83, N-[4-(4-Chloro-1H-pyrazol-1-yl)-3-sulfamoylphenyl]-2-(3,5-difluorophenyl)acetamide] | 36 | > 25000 |
| NS(=O)(=O)c1cc(NC(=O)Cc2ccc(F)cc2)ccc1-n1cc(Cl)cn1 [Example 84, N-[4-(4-Chloro-1H-pyrazol-1-yl)-3-sulfamoylphenyl]-2-(4-fluorophenyl)acetamide] | 29 | > 25000 |
| NS(=O)(=O)c1cc(NC(=O)Cc2ccccc2O)ccc1-n1cc(Cl)cn1 [Example 85, N-[4-(4-Chloro-1H-pyrazol-1-yl)-3-sulfamoylphenyl]-2-(2-hydroxyphenyl)acetamide] | 92 | 42 |
| NS(=O)(=O)c1cc(NC(=O)Cc2ccc(O)cc2)ccc1-n1cc(Cl)cn1 [Example 86, N-[4-(4-Chloro-1H-pyrazol-1-yl)-3-sulfamoylphenyl]-2-(4-hydroxyphenyl)acetamide] | 97 | 353 |
| NS(=O)(=O)c1cc(NC(=O)Cc2cccc(F)c2F)ccc1-n1cc(Cl)cn1 [Example 87, N-[4-(4-Chloro-1H-pyrazol-1-yl)-3-sulfamoylphenyl]-2-(2,3-difluorophenyl)acetamide] | 82 | 342 |
| NS(=O)(=O)c1cc(NC(=O)Cc2ccc(F)cc2Cl)ccc1-n1cc(Cl)cn1 [Example 88, 2-(2-Chloro-4-fluorophenyl)-N-[4-(4-chloro-1H-pyrazol-1-yl)-3-sulfamoyl-phenyl]acetamide] | 87 | 80 |
| NS(=O)(=O)c1cc(NC(=O)Cc2cccnc2Cl)ccc1-n1cc(Cl)cn1 [Example 89, N-[4-(4-Chloro-1H-pyrazol-1-yl)-3-sulfamoylphenyl]-2-(2-chloropyridin-3-yl)-acetamide] | 83 | 2320 |
| NS(=O)(=O)c1cc(NC(=O)Cc2cccc(C(F)(F)F)c2Cl)ccc1-n1cc(Cl)cn1 [Example 90, N-[4-(4-Chloro-1H-pyrazol-1-yl)-3-sulfamoylphenyl]-2-[2-chloro-3-(trifluoromethyl)-phenyl]acetamide] | 85 | 774 |
| NS(=O)(=O)c1cc(NC(=O)Cc2ccccc2OC(F)F)ccc1-n1cc(Cl)cn1 [Example 91, N-[4-(4-Chloro-1H-pyrazol-1-yl)-3-sulfamoylphenyl]-2-[2-(difluoromethoxy)-phenyl]acetamide] | 94 | 169 |
| NS(=O)(=O)c1cc(NC(=O)Cc2ccccc2OC(F)(F)F)ccc1-n1cc(Cl)cn1 [Example 92, N-[4-(4-Chloro-1H-pyrazol-1-yl)-3-sulfamoylphenyl]-2-[2-(trifluoromethoxy)-phenyl]acetamide] | 92 | 143 |
| NS(=O)(=O)c1cc(NC(=O)Cc2cc(F)c(F)cc2Cl)ccc1-n1cc(Cl)cn1 [Example 93, 2-(2-Chloro-4,5-difluorophenyl)-N-[4-(4-chloro-1H-pyrazol-1-yl)-3-sulfamoylphenyl]-acetamide] | 73 | 74 |
| COc1ccc(CC(=O)Nc2ccc(-n3cc(Cl)cn3)c(S(N)(=O)=O)c2)c(Cl)c1 [Example 94, 2-(2-Chloro-4-methoxyphenyl)-N-[4-(4-chloro-1H-pyrazol-1-yl)-3-sulfamoylphenyl]-acetamide] | 72 | 413 |

Further lines, results first:

| Emax [%] | IC50 [nM] | Compound |
| --- | --- | --- |
| 87 | 54 | Cc1ccc(F)c(CC(=O)Nc2ccc(-n3cc(Cl)cn3)c(S(N)(=O)=O)c2)c1Cl [Example 95, 2-(2-Chloro-6-fluoro-3-methylphenyl)-N-[4-(4-chloro-1H-pyrazol-1-yl)-3-sulfamoyl-phenyl]acetamide] |
| 83 | 233 | NS(=O)(=O)c1cc(NC(=O)Cc2c(F)ccc(F)c2Cl)ccc1-n1cc(Cl)cn1 [Example 96, 2-(2-Chloro-3,6-difluorophenyl)-N-[4-(4-chloro-1H-pyrazol-1-yl)-3-sulfamoylphenyl]-acetamide] |
| 103 | 201 | Cc1ccc(Cl)c(CC(=O)Nc2ccc(-n3cc(Cl)cn3)c(S(N)(=O)=O)c2)c1 [Example 97, 2-(2-Chloro-5-methylphenyl)-N-[4-(4-chloro-1H-pyrazol-1-yl)-3-sulfamoylphenyl]-acetamide] |
| 77 | 124 | NS(=O)(=O)c1cc(NC(=O)Cc2cc(F)ccc2Cl)ccc1-n1cc(Cl)cn1 [Example 98, 2-(2-Chloro-5-fluorophenyl)-N-[4-(4-chloro-1H-pyrazol-1-yl)-3-sulfamoylphenyl]-acetamide] |
| 87 | 499 | NS(=O)(=O)c1cc(NC(=O)Cc2cc(Cl)ccc2Cl)ccc1-n1cc(Cl)cn1 [Example 99, N-[4-(4-Chloro-1H-pyrazol-1-yl)-3-sulfamoylphenyl]-2-(2,5-dichlorophenyl)acetamide] |
| 86 | 319 | CC(C)c1ccccc1CC(=O)Nc1ccc(-n2cc(Cl)cn2)c(S(N)(=O)=O)c1 [Example 100, N-[4-(4-Chloro-1H-pyrazol-1-yl)-3-sulfamoylphenyl]-2-(2-isopropylphenyl)acetamide] |
| 83 | 202 | COc1ccc(Cl)c(CC(=O)Nc2ccc(-n3cc(Cl)cn3)c(S(N)(=O)=O)c2)c1 [Example 101, 2-(2-Chloro-5-methoxyphenyl)-N-[4-(4-chloro-1H-pyrazol-1-yl)-3-sulfamoylphenyl]-acetamide] |
| 80 | 99 | NS(=O)(=O)c1cc(NC(=O)Cc2c(F)cc(F)cc2Cl)ccc1-n1cc(Cl)cn1 [Example 102, 2-(2-Chloro-4,6-difluorophenyl)-N-[4-(4-chloro-1H-pyrazol-1-yl)-3-sulfamoylphenyl]-acetamide] |
| 103 | 174 | NS(=O)(=O)c1cc(NC(=O)Cc2c(Cl)cccc2C(F)(F)F)ccc1-n1cc(Cl)cn1 [Example 103, N-[4-(4-Chloro-1H-pyrazol-1-yl)-3-sulfamoylphenyl]-2-[2-chloro-6-(trifluoromethyl)-phenyl]acetamide] |
| 95 | 2230 | Cc1cc(F)c(Br)cc1CC(=O)Nc1ccc(-n2cc(Cl)cn2)c(S(N)(=O)=O)c1 [Example 104, 2-(5-Bromo-4-fluoro-2-methylphenyl)-N-[4-(4-chloro-1H-pyrazol-1-yl)-3-sulfamoyl-phenyl]acetamide] |
| 101 | 108 | COc1cccc(Cl)c1CC(=O)Nc1ccc(-n2cc(Cl)cn2)c(S(N)(=O)=O)c1 [Example 105, 2-(2-Chloro-6-methoxyphenyl)-N-[4-(4-chloro-1H-pyrazol-1-yl)-3-sulfamoyl-phenyl]acetamide] |
| 92 | 4630 | CC(C(=O)Nc1ccc(-n2cc(Cl)cn2)c(S(N)(=O)=O)c1)c1c(F)cccc1F (stereo not shown) [Example 106, N-[4-(4-Chloro-1H-pyrazol-1-yl)-3-sulfamoylphenyl]-2-(2,6-difluorophenyl)-propanamide] |
| 44 | > 25000 | NS(=O)(=O)c1cc(NC(=O)Cc2ccc(C(F)F)cc2)ccc1-n1cc(Cl)cn1 [Example 107, N-[4-(4-Chloro-1H-pyrazol-1-yl)-3-sulfamoylphenyl]-2-[4-(difluoromethyl)-phenyl]acetamide] |
| 35 | > 25000 | NS(=O)(=O)c1cc(NC(=O)Cc2ccc(Cl)cc2)ccc1-n1cc(C(F)(F)F)cn1 [Example 108, 2-(4-Chlorophenyl)-N-{3-sulfamoyl-4-[4-(trifluoromethyl)-1H-pyrazol-1-yl]phenyl}-acetamide] |
| 86 | 655 | NS(=O)(=O)c1cc(NC(=O)C(F)(F)c2ccccc2Cl)ccc1-n1cc(Cl)cn1 [Example 109, 2-(2-Chlorophenyl)-N-[4-(4-chloro-1H-pyrazol-1-yl)-3-sulfamoylphenyl]-2,2-difluoroacetamide] |
| 51 | 267 | NS(=O)(=O)c1cc(NC(=O)Cc2ccccc2[N+](=O)[O-])ccc1-n1cc(C(F)(F)F)cn1 [Example 110, 2-(2-Nitrophenyl)-N-{3-sulfamoyl-4-[4-(trifluoromethyl)-1H-pyrazol-1-yl]phenyl}-acetamide] |
| 58 | 373 | NS(=O)(=O)c1cc(NC(=O)Cc2ccc(Cl)cc2Cl)ccc1-n1cc(C(F)(F)F)cn1 [Example 111, 2-(2,4-Dichlorophenyl)-N-{3-sulfamoyl-4-[4-(trifluoromethyl)-1H-pyrazol-1-yl]phenyl}-acetamide] |
